Experiments:
[1] = molecular target: D(2) dopamine receptor (Homo sapiens) (UniProt P14416); settings: Compound concentration 10.0 uM
[2] = molecular target: Cyclin-G-associated kinase (Homo sapiens, UniProt O14976); test: GAK(GAK1PGF1) Takeda global kinase panel
[3] = molecular target: Casein kinase I isoform delta (Homo sapiens, UniProt P48730); test: CK1delta(CS1DLGI1) Takeda global kinase panel
[4] = molecular target: Mitogen-activated protein kinase 14 (Homo sapiens, UniProt Q16539); test: p38alpha(MP14LGI1) Takeda global kinase panel
[5] = molecular target: Glutamate receptor ionotropic, kainate (Rattus norvegicus) (UniProt P22756+Q01812+P42260+P42264+Q63273); settings: Compound concentration 10.0 uM
[6] = molecular target: B1 bradykinin receptor (Homo sapiens) (UniProt P46663); settings: Compound concentration 10.0 uM
[7] = molecular target: Serine/threonine-protein kinase MARK1 (Homo sapiens, UniProt Q9P0L2); test: MARK1(MAR1PHY1) Takeda global kinase panel
[8] = molecular target: Interleukin-1 receptor-associated kinase 4 (Homo sapiens, UniProt Q9NWZ3); test: IRAK4(IRK4LGF1) Takeda global kinase panel
[9] = molecular target: Adenosine receptor A3 (Homo sapiens) (UniProt P0DMS8); settings: Compound concentration 10.0 uM
[10] = molecular target: Platelet-derived growth factor receptor beta (Homo sapiens, UniProt P09619); test: PDGFRbeta(PDGBIHC1) Takeda global kinase panel
[11] = molecular target: Uncharacterized serine/threonine-protein kinase SBK3 (Homo sapiens, UniProt P0C264); test: SgK110(SG10LGF1) Takeda global kinase panel
[12] = molecular target: Vascular endothelial growth factor receptor 2 (Homo sapiens, UniProt P35968); test: KDR(KDR1CGY1) Takeda global kinase panel
[13] = molecular target: Serine/threonine-protein kinase Nek3 (Homo sapiens, UniProt P51956); test: Nek3(NEK3LGRI) Takeda global kinase panel
[14] = molecular target: Homeodomain-interacting protein kinase 1 (Homo sapiens, UniProt Q86Z02); test: HIPK1(HIP1LGF1) Takeda global kinase panel
[15] = molecular target: Myosin light chain kinase (Homo sapiens, UniProt Q32MK0); test: caMLCK(MYL3LGF1) Takeda global kinase panel
[16] = molecular target: Serine/threonine-protein kinase ULK2 (Homo sapiens, UniProt Q8IYT8); test: ULK2(ULK2LGY1) Takeda global kinase panel
[17] = molecular target: Homeodomain-interacting protein kinase 2 (Homo sapiens, UniProt Q9H2X6); test: HIPK2(HIP2LGY1) Takeda global kinase panel
[18] = molecular target: Cyclin-dependent kinase 2 (Homo sapiens, UniProt P24941); test: CDK2(CDK2CGS1) Takeda global kinase panel
[19] = molecular target: Mu-type opioid receptor (Homo sapiens) (UniProt P35372); settings: Compound concentration 10.0 uM
[20] = molecular target: G protein-coupled receptor kinase 3 (Homo sapiens, UniProt P35626); test: BARK2 [GRK3(ADR2LGG5)] Takeda global kinase panel
[21] = molecular target: Substance-P receptor (Homo sapiens) (UniProt P25103); test: Inhibition of Tachykinin NK1 at 10 µM in the Eurofins-Panlabs radioligand binding assay (Eurofins_assay_255520); set-up: ligand concentration 0.8 nM; settings: Compound concentration 10.0 uM
[22] = molecular target: Mitogen-activated protein kinase kinase kinase 11 (Homo sapiens, UniProt Q16584); test: MLK3(M311LGF1) Takeda global kinase panel
[23] = molecular target: Fibroblast growth factor receptor 3 (Homo sapiens, UniProt P22607); test: FGFR3(FGF3LGF1) Takeda global kinase panel
[24] = molecular target: Serine/threonine-protein kinase RIO2 (Homo sapiens, UniProt Q9BVS4); test: RIOK2(RIO2LGF1) Takeda global kinase panel
Rattus norvegicus = organism: Rattus norvegicus; test: Inhibition of Rolipram at 10 µM in the Eurofins-Panlabs radioligand binding assay (Eurofins_assay_268811); type: protein assay; set-up: ligand concentration 1.8 nM; settings: Compound concentration 10.0 uM
[25] = molecular target: TRAF2 and NCK-interacting protein kinase (Homo sapiens, UniProt Q9UKE5); test: TNIK [ZC2(TNIKLGF1)] Takeda global kinase panel
[26] = molecular target: Casein kinase I isoform gamma-1 (Homo sapiens, UniProt Q9HCP0); test: CK1gamma1(C1G1LGI1) Takeda global kinase panel
Myotonin-protein kinase = Myotonin-protein kinase (Homo sapiens, UniProt Q09013); test: DMPK(DMPKLGF1) Takeda global kinase panel
[27] = molecular target: Cyclin-dependent kinase 4 (Homo sapiens, UniProt P11802); test: CDK4(CDK4CGS1) Takeda global kinase panel
SRSF protein kinase 1 = SRSF protein kinase 1 (Homo sapiens, UniProt Q96SB4); test: SRPK1(SRP1IHRL) Takeda global kinase panel
[28] = molecular target: Serine/threonine-protein kinase Chk2 (Homo sapiens, UniProt O96017); test: CHK2(CHE2LGY1) Takeda global kinase panel
[29] = molecular target: D(1A) dopamine receptor (Homo sapiens) (UniProt P21728); settings: Compound concentration 10.0 uM
[30] = molecular target: Serine/threonine-protein kinase TNNI3K (Homo sapiens, UniProt Q59H18); test: HH498(TNNILGY1) Takeda global kinase panel
[31] = molecular target: Serine/threonine-protein kinase pim-1 (Homo sapiens, UniProt P11309); test: Pim1(PIM1LGP1) Takeda global kinase panel
[32] = molecular target: Protein kinase C eta type (Homo sapiens, UniProt P24723); test: PKCeta(PRKHLGRA) Takeda global kinase panel
Activin receptor type-2A = Activin receptor type-2A (Homo sapiens, UniProt P27037); test: ACtR2(AC2ALGE1) Takeda global kinase panel
[33] = molecular target: T1, Muscarinic acetylcholine receptor M1 (Homo sapiens) (UniProt P11229); settings: Compound concentration 10.0 uM
T1 sequence (whole entry): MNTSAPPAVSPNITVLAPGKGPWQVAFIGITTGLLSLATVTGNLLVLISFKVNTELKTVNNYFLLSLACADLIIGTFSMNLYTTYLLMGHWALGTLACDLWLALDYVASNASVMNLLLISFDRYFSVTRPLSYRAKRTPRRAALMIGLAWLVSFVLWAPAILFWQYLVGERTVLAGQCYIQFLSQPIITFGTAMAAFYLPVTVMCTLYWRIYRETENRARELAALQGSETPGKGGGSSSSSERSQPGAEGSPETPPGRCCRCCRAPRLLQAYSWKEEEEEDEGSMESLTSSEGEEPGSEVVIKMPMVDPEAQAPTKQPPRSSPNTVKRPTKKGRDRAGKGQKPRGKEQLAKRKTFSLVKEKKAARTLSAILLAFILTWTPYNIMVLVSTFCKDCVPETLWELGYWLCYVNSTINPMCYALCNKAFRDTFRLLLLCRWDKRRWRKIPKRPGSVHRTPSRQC

[34] = molecular target: Gamma-aminobutyric acid type B receptor subunit 1 (Homo sapiens) (UniProt Q9UBS5); test: Inhibition of GABAB1A at compound concentration of 10.0 uM in the Eurofins-Panlabs radioligand binding assay (Eurofins_assay_228610); set-up: ligand concentration 4 nM; settings: Compound concentration 10.0 uM
[35] = molecular target: Serine/threonine-protein kinase Sgk3 (Homo sapiens, UniProt Q96BR1); test: SGK3(SGK3LGY1) Takeda global kinase panel

Myotonin-protein kinase, sequence (Q09013 whole entry): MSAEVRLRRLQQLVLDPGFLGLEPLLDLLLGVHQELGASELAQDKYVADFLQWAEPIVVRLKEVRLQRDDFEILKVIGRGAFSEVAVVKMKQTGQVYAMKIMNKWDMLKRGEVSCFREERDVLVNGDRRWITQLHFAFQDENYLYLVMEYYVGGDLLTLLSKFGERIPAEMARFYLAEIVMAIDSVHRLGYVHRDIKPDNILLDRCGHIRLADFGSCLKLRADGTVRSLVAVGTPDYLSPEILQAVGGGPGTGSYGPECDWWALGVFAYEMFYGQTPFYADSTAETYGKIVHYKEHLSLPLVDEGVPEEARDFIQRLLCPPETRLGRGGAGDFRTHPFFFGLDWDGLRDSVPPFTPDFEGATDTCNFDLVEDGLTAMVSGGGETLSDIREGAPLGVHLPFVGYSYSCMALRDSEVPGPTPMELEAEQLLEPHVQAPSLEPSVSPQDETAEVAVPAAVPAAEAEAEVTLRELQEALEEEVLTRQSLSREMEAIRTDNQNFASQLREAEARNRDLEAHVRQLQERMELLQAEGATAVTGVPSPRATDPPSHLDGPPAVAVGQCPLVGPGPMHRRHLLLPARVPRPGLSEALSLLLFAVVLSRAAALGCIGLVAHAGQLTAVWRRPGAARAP
Mu-type opioid receptor (Homo sapiens), sequence (P35372 whole entry): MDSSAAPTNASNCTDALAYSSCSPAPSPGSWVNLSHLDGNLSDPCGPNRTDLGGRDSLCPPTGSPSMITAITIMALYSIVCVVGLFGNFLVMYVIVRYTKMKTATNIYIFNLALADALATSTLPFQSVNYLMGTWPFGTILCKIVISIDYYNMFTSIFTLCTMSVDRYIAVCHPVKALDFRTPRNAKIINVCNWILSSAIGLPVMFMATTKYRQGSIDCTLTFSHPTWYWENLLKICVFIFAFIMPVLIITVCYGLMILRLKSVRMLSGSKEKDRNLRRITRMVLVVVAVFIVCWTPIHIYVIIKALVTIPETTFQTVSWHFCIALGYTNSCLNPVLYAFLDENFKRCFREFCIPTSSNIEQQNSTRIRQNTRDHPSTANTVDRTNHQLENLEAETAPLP
TRAF2 and NCK-interacting protein kinase, sequence (Q9UKE5 whole entry, canonical isoform): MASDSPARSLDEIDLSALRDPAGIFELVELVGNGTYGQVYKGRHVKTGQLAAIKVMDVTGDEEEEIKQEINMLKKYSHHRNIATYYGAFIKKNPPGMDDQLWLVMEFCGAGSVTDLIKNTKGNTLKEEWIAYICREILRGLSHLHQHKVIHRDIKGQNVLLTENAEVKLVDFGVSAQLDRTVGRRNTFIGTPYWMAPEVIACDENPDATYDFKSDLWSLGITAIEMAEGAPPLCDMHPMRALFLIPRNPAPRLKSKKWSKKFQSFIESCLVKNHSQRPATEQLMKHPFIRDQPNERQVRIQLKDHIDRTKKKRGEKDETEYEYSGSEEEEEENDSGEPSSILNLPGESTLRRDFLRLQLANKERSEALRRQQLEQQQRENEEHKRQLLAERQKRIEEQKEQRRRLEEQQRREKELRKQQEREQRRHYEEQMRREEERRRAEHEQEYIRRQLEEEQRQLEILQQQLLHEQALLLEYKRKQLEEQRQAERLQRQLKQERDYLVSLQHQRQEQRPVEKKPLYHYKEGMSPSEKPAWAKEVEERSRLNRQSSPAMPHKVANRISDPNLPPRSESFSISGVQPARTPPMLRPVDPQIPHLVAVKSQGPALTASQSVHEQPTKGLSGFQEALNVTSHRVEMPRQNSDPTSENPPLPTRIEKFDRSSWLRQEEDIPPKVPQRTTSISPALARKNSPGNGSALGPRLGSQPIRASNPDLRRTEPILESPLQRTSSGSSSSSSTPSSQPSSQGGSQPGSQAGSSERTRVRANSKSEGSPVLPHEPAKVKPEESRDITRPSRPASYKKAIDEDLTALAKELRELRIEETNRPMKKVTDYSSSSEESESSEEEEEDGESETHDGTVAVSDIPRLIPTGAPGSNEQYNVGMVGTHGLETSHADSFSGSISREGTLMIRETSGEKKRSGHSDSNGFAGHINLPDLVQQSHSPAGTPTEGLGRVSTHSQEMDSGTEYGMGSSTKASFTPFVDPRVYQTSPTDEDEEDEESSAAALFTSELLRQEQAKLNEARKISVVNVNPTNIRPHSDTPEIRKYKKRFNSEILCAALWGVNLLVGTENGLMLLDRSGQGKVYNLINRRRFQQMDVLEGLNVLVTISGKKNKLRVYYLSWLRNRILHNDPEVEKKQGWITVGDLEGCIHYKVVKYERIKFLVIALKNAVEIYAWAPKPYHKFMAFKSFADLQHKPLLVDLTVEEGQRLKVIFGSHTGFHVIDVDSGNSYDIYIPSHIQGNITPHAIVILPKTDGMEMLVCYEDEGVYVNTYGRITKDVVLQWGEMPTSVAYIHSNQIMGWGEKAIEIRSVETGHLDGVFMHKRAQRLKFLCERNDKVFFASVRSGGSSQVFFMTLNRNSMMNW
Activin receptor type-2A, sequence (P27037 whole entry): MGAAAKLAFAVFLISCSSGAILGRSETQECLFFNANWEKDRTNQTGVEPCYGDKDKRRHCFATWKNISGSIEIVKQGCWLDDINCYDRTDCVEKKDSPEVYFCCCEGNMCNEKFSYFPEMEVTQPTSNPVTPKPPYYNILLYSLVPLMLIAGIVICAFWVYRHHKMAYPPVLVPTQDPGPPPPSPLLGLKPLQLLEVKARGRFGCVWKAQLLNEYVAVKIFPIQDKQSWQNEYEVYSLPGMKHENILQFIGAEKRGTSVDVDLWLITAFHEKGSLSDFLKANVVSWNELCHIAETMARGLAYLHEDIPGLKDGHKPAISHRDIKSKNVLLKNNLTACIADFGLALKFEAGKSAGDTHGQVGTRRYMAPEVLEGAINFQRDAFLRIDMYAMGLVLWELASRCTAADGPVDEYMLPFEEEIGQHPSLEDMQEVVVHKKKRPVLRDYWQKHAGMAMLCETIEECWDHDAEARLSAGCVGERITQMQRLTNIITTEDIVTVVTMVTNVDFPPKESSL
G protein-coupled receptor kinase 3, sequence (P35626 whole entry): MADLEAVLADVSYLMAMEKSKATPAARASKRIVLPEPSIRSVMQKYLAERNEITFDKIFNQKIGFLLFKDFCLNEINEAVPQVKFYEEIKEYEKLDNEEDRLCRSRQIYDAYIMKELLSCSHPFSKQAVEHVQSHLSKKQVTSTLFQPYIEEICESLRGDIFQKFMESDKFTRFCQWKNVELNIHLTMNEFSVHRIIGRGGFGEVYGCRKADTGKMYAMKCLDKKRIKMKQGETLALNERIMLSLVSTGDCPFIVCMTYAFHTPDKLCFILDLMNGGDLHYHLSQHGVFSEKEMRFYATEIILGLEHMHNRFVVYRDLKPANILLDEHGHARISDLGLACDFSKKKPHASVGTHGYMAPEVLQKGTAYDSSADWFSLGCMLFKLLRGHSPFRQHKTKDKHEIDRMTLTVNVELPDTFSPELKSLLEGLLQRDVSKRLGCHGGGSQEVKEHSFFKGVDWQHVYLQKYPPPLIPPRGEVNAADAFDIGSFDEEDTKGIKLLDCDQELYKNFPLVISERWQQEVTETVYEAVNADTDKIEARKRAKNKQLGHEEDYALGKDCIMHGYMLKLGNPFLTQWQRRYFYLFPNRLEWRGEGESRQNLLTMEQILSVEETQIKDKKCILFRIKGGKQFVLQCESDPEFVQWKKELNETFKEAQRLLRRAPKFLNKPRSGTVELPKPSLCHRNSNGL
Uncharacterized serine/threonine-protein kinase SBK3, sequence (P0C264 whole entry): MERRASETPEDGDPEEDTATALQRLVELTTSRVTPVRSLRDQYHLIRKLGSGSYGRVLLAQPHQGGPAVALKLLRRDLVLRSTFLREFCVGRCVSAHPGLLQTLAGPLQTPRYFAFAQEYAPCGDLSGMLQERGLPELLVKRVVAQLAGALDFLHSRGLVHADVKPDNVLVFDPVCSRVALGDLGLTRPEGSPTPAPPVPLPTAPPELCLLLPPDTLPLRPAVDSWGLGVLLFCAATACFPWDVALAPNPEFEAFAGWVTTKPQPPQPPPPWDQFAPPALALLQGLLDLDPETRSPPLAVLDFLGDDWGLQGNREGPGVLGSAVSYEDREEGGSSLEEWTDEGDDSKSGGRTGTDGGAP
Mitogen-activated protein kinase 14, sequence (Q16539 whole entry): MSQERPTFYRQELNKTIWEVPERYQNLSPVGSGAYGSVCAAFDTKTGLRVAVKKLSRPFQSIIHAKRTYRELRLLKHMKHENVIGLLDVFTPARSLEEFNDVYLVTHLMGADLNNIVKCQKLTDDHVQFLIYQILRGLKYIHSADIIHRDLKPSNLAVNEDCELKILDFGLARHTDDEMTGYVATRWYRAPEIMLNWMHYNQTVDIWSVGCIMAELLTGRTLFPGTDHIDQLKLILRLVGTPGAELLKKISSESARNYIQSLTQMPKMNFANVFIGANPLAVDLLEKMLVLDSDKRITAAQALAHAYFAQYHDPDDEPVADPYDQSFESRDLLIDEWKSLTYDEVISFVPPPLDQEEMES
Substance-P receptor (Homo sapiens), sequence (P25103 whole entry): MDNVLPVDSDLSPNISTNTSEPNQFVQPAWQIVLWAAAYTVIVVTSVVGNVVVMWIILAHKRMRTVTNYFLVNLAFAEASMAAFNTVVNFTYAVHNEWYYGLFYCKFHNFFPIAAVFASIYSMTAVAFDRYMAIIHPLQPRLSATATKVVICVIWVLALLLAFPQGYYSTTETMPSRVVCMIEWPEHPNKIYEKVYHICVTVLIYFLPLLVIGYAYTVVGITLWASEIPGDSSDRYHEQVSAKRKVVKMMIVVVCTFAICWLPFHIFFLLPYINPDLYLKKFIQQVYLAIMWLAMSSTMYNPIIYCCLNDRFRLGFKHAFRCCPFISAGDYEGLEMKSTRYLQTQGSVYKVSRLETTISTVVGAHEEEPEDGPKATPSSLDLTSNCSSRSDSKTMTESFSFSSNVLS
Cyclin-dependent kinase 4, sequence (P11802 whole entry): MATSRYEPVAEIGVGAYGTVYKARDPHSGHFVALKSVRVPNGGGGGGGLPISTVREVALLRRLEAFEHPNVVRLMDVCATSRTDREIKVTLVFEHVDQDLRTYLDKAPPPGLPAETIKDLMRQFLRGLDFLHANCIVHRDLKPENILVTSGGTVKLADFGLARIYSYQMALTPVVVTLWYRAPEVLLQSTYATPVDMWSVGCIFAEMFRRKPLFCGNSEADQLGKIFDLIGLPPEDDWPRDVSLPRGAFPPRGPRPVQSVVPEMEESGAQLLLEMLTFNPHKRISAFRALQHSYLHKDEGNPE

Row | SMILES | inhibition [1] | IC50 [2] | IC50 [3] | IC50 [4] | inhibition [5] | inhibition [6] | IC50 [7] | IC50 [8] | inhibition [9] | IC50 [10] | IC50 [11] | IC50 [12] | IC50 [13] | IC50 [14] | IC50 [15] | IC50 [16] | IC50 [17] | IC50 [18] | inhibition [19] | IC50 [20] | other results
1 | CN1C(=O)[C@@H](N2CCc3cn(Cc4ccccc4)nc3C2=O)COc2ccccc21 [TP-030-1] | 7% | 1 µM | 1 µM | 1 µM | -2% | 2% | 1 µM | 1 µM | 15% | 1 µM | 1 µM | 1 µM | 1 µM | 1 µM | 1 µM | 1 µM | 1 µM | 1 µM | 19% | 1 µM | inhibition [21]: 29%; IC50 [22]: 1 µM; IC50 [23]: 1 µM; IC50 [24]: 1 µM; inhibition (Rattus norvegicus): 0%; IC50 [25]: 1 µM; IC50 [26]: 1 µM; IC50 (Myotonin-protein kinase): 1 µM; IC50 [27]: 1 µM; IC50 (SRSF protein kinase 1): 1 µM; IC50 [28]: 1 µM; inhibition [29]: -4%; IC50 [30]: 1 µM; IC50 [31]: 1 µM; IC50 [32]: 1 µM; IC50 (Activin receptor type-2A): 1 µM; inhibition [33]: 0%; inhibition [34]: 0%; IC50 [35]: 1 µM
2 | CN1C(=O)[C@@H](N2CCc3cn(CC4CCS(=O)(=O)CC4)nc3C2=O)COc2ccccc21 [TP-030n] | 2% | 1 µM | 1 µM | 1 µM | 7% | 9% | 1 µM | 1 µM | 0% | 1 µM | 1 µM | 1 µM | 1 µM | 1 µM | 1 µM | 1 µM | 1 µM | 1 µM | 4% | 1 µM | inhibition [21]: 14%; IC50 [22]: 1 µM; IC50 [23]: 1 µM; IC50 [24]: 1 µM; inhibition (Rattus norvegicus): 1%; IC50 [25]: 1 µM; IC50 [26]: 1 µM; IC50 (Myotonin-protein kinase): 1 µM; IC50 [27]: 1 µM; IC50 (SRSF protein kinase 1): 1 µM; IC50 [28]: 1 µM; inhibition [29]: 7%; IC50 [30]: 1 µM; IC50 [31]: 1 µM; IC50 [32]: 1 µM; IC50 (Activin receptor type-2A): 1 µM; inhibition [33]: 2%; inhibition [34]: -6%; IC50 [35]: 1 µM

From ChEMBL document CHEMBL4507327 (2021)
